The test system of experiment [1] is IL-1β signaling (HEK-Blue IL-1β cells). The experiment can be described thus: SEAP reporter assay in HEK-Blue IL-1β reporter cells. The following applies: 10 μM; 250 pg/mL IL-1β. Format: cell-based, human. The procedure: (§1) HEK-Blue® IL-33 (Invivogen, Cat. #hkb-hil33) and IL-1β cells (Invivogen, Cat #hkb-il1bv2) were cultured in T25 and T75 flasks (NUNC, Cat. #156367 and #156499) in DMEM media supplemented with L-glutamine (Gibco, Cat. #11995-065), 10% Fetal Bovine Serum (Gibco, Cat. #10437-028), 1% Penicillin/Streptomycin (Gibco, Cat. #15140-148), and 0.5% Normacin® (Invivogen, Cat. #ant-hr-1). IL-33 cell growth media also included 1 mL of 250× Selectin Cocktail® (Invivogen, Cat. #hb-sel) and IL-1β cell growth media included 100 μg/mL of Zeocin® (Cat #ant-zn-05). Cells were maintained at 37° C. with humidity and 5% CO2 and were passaged upon reaching 80-85% confluency. To ensure assay consistency, passage number was kept low (<20) to maintain stable ST2 and IL-1RI expression.
IL-33 and IL-1β signaling activation was assessed based on the expression of a SEAP reporter gene. Flasks were washed 2× with prewarmed, sterile PBS (Gibco), scraped in fresh media, and spun down for 5 m at 250×g. Pellet was resuspended in 5 mL test medium (DMEM, 10% heat inactivated FBS, and 1% P/S), cells counted, and concentration adjusted to 2.8×10^5 cell/mL. […] After incubation, SEAP reporter gene phosphatase activity was measured by adding 20 μL of supernatant from each well to 180 μL of QuantiBLUE substrate (Invivogen, Cat #rep-qbs) and incubated an additional 30 min at 37° C. Colorimetric absorbance was measured at 620 nm. […]
(A reporter such as luciferase makes a cellular process visible.)

Experiment [2] relates to IL-33 signaling (HEK-Blue IL-33 cells). Put plainly: SEAP reporter assay in HEK-Blue IL-33 reporter cells. Format: cell-based, human. How it is done: as §1, with “To ensure assay consistency, passage number was kept low (<20) to maintain stable ST2 and IL-1RI expression.” left out
IL-33 and IL-1β signaling activation was assessed based on the expression of a SEAP reporter gene. […] Pellet was resuspended in 5 mL test medium (DMEM, 10% heat inactivated FBS, and 1% P/S), cells counted, and concentration adjusted to 2.8×10^5 cell/mL. […] After incubation, SEAP reporter gene phosphatase activity was measured by adding 20 μL of supernatant from each well to 180 μL of QuantiBLUE substrate (Invivogen, Cat #rep-qbs) and incubated an additional 30 min at 37° C. Colorimetric absorbance was measured at 620 nm. […]
MSTOP bioactivity was determined in a reporter gene cell model. […] After six hours, IL-33 signaling was quantified by absorbance at 620 nm, based on the metabolism of QUANTI-Blue substrate by expressed SEAP secreted into the media.

Bridges are numbered along the chain shown (N, C = ends). Roman numbers before positions name the chains, in order.

Take “MSTOP: 3WJ DNA scaffold whose three DBCO staple strands carry cyclized azidolysine IL-1RAcP hotspot peptides; decoy for IL-33/ST2 (peptide 1 Ac-CKEYGIQRITC-NH2; peptide 2 Ac-AKVGSPKNAVPPC-NH2; peptide 3 Ac-CKGEVAKAAKVKC-NH2; disulfide I:1-I:11, III:1-III:13; thioether II:1-II:13; not fully specified (some residues); also: three peptides held on a 3-way junction DNA scaffold via DBCO staple strands)”: in experiment [1], the “reduction in SEAP expression” value was “Negligible reduction”. In addition, the “reduction in IL-33 induced SEAP expression” value in experiment [2] (1 μM, 100 pg/mL IL-33, 6 h) is around 40%. Further, the “inhibition of IL-33 cells compared to IL-1β cells” value in experiment [2] (MSTOP dose curve 10 μM to 10 nM) is “Significant inhibition”.

The record behind these values is patent US20240084044A1, “Heteromultivalent Nucleic Acid Scaffolds and Uses Thereof” (George Mason University, priority 2022, published 2024).
